Assay results reported in BindingDB's records for doi:10.1038/nchembio.421 (Novartis Institutes for BioMedical Research, 2010).

Biological target: T1, Farnesyl pyrophosphate synthase (Homo sapiens, UniProt P14324)
T1 sequence (P14324 whole entry): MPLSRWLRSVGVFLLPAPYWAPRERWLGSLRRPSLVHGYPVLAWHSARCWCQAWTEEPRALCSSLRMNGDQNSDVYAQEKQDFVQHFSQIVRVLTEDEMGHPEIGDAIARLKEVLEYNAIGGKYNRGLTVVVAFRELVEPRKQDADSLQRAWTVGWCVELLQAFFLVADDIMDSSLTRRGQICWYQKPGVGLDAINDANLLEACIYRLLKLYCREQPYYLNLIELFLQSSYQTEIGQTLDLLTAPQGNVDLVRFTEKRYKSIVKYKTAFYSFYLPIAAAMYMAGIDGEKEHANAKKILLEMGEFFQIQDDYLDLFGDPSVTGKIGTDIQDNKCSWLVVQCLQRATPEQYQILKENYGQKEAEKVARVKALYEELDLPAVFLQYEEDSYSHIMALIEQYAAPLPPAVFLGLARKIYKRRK
Test: Biophysical assay
Details: pH 7.4; 23 °C
Excerpt: A biophysical assay using NMR spectroscopy to identify fragments with higher binding affinity to human recombinant FPPS.

Cc1c(CC(=O)O)sc2ccc(Cl)cc12 [CID68686]
IC50: > 500 µM

O=C(O)Cc1sc2ccccc2c1Cl [2-(3-Chlorobenzo[b]thiophen-2-yl)acetic acid, 6]
IC50: 12 µM

CC(C(=O)O)c1cc2c(Cl)cccc2s1 (centres undefined) [2-(4-Chlorobenzo[b]thiophen-2-yl)propanoic acid, 5]
IC50: 80 µM

O=C(O)c1cc(Cn2c(C(=O)O)cc3ccc4ccccc4c32)on1 [5-((2-Carboxy-1H-benzo[g]indol-1-yl)methyl)isoxazole-3-carboxylic acid, 12]
IC50: 0.08 µM
